In US10821115B2, “Compounds that inhibit Mcl-1 protein” (priority 2017, dated 2020):
Read-outs that look alike come from different tables or passages of the source.

Tests used:
[1] = tested on: human multiple myeloma cell line, OPM-2; assay: Cell viability assay (OPM-2 10 FBS), CellTiter-Glo; assay type: cell-based
In short: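 Steps: plate cells at 3000/well in 10% FBS growth medium, add serially diluted compound, incubate 16 h at 37 °C with 5% CO2, add detection reagent and read luminescence after 25 min. A 4-parameter logistic model gives IC50.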

[2] = target: recombinant human Mcl-1 (residues 171-327) / Bim interaction (Homo sapiens (Human), UniProt Q07820); assay: biochemical; assay type: binding; settings: read-out: Mcl-1 HTRF IC50
[3] = read-out: OPM-2 10% FBS IC50 IP, OPM-2 cells, 10% FBS, 16 h, CellTiter-Glo
[4] = TR-FRET, Mcl-1(171-327) / biotin-Bim (51-76)
[5] = Homo sapiens, OPM-2, 16 h, read-out: OPM-2 10% FBS IC50 IP, OPM-2 cells, 10% FBS, 16 h, CellTiter-Glo
[6] = Homo sapiens, OPM-2, 16 h, read-out: OPM-2 10% FBS IC50 IP, OPM-2 cells, 10% FBS, 16 h incubation
[7] = 0.1 nM Mcl-1(171-327), 0.05 nM biotin-Bim (51-76)

Chain of recombinant human Mcl-1 (residues 171-327) / Bim interaction (Q07820 171-327): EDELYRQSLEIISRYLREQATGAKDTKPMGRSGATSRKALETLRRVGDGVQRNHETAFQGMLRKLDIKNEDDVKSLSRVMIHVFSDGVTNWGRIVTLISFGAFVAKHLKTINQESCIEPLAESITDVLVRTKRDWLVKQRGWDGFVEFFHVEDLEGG

## COCCN(C)S(=O)(=O)C[C@]1(O)CCC[C@H](C)[C@@H](C)S(=O)(=O)NC(=O)c2ccc3c(c2)N(C[C@@H]2CC[C@H]21)C[C@@]1(CCCc2cc(Cl)ccc21)CO3 [Example 100166, 1-((1S,3′R,6′R,7′S,11′S,12′R)-6-chloro-7′-hydroxy-11′,12′-dimethyl-13′,13′-dioxido-15′-oxo-3,4-dihydro-2H-spiro[naphthalene-1,22′-[20]oxa[13]thia[1,14]diazatetracyclo [14.7.2.0~3,6~.0~19,24~]pentacosa[16,18,24]trien]-7′-yl)-N-(2-methoxyethyl)-N-methylmethanesulfonamide]
[1]; [3]
  IC50: 945 nM
[2]; [4]
  IC50: 1.77 nM

## C=CC[C@@]1(O)/C=C/C[C@H](C)[C@@H](C)S(=O)(=O)NC(=O)c2ccc3c(c2)N(C[C@@H]2CC[C@H]21)C[C@@]1(CCCc2cc(Cl)ccc21)CO3 (single isomer, unassigned) [Example 100131]
[1]; [5]
  IC50: 144 nM
[2]; [4]
  IC50: 0.163 nM

## CCO[C@@]1(CN2CCN(CC)CC2)/C=C/C[C@H](C)[C@@H](C)S(=O)(=O)NC(=O)c2ccc3c(c2)N(C[C@@H]2CC[C@H]21)C[C@@]1(CCCc2cc(Cl)ccc21)CO3 [Example 112, (1S,3′R,6′R,7′S,8′E,11′S,12′R)-6-chloro-7′-ethoxy-7′-((4-ethyl-1-piperazinyl)methyl)-11′,12′-dimethyl-3,4-dihydro-2H,15′H-spiro[naphthalene-1,22′-[20]oxa[13]thia[1,14]diazatetracyclo [14.7.2.0~3,6~.0~19,24~]pentacosa[8,16,18,24]tetraen]-15′-one 13′,13′-dioxide]
[1]; [6]
  IC50: 654 nM
[2]; [7]
  IC50: 0.617 nM

## CC(=O)N[C@@]1(CO)CCC[C@H](C)[C@@H](C)S(=O)(=O)NC(=O)c2ccc3c(c2)N(C[C@@H]2CC[C@H]21)C[C@@]1(CCCc2cc(Cl)ccc21)CO3 [Example 100265, N-((1S,3′R,6′R,7′S,11′S,12′R)-6-chloro-7′-(hydroxymethyl)-11′,12′-dimethyl-13′,13′-dioxido-15′-oxo-3,4-dihydro-2H-spiro[naphthalene-1,22′-[20]oxa[13]thia[1,14]diazatetracyclo [14.7.2.0~3,6~.0~19,24~]pentacosa[16,18,24]trien]-7′-yl)acetamide]
[1]; [5]
  IC50: 441 nM
[2]; [4]
  IC50: 0.439 nM

## CO[C@]1(CN2CCN3CCCC[C@@H]3C2)/C=C/C[C@H](C)[C@@H](CC2CCC2)S(=O)(=O)NC(=O)c2ccc3c(c2)N(C[C@@H]2CC[C@H]21)C[C@@]1(CCCc2cc(Cl)ccc21)CO3 [Example 40, (1S,3′R,6′R,7′R,8′E,11′S,12′R)-6-chloro-12′-(cyclobutylmethyl)-7′-methoxy-11′-methyl-7′-((9aR)-octahydro-2H-pyrido[1,2-a]pyrazin-2-ylmethyl)-3,4-dihydro-2H,15′H-spiro[naphthalene-1,22′-[20]oxa[13]thia[1,14]diazatetracyclo [14.7.2.0~3,6~.0~19,24~]pentacosa[8,16,18,24]tetraen]-15′-one 13′,13′-dioxide]
[1]; [6]
  IC50: 571 nM
[2]; [7]
  IC50: 0.444 nM

## C[C@@H]1[C@@H](C)C/C=C/[C@@](O)(C#CCCc2ccccn2)[C@@H]2CC[C@H]2CN2C[C@@]3(CCCc4cc(Cl)ccc43)COc3ccc(cc32)C(=O)NS1(=O)=O [Example 100454, (1S,3′R,6′R,7′S,8′E,11′S,12′R)-6-chloro-7′-hydroxy-11′,12′-dimethyl-7′-(4-(2-pyridinyl)-1-butyn-1-yl)-3,4-dihydro-2H,15′H-spiro[naphthalene-1,22′-[20]oxa[13]thia[1,14]diazatetracyclo [14.7.2.0~3,6~.0~19,24~]pentacosa[8,16,18,24]tetraen]-15′-one 13′,13′-dioxide]
[1]; [3]
  IC50: 802 nM
[2]; [4]
  IC50: 0.652 nM

## CO[C@@]1(CN2CCC3(CC2)CN(C)C(=O)O3)/C=C/C[C@H](C)[C@@H](C)S(=O)(=O)NC(=O)c2ccc3c(c2)N(C[C@@H]2CC[C@H]21)C[C@@]1(CCCc2cc(Cl)ccc21)CO3 [Example 290, (1S,3′R,6′R,7′S,8′E,11′S,12′R)-6-chloro-7′-methoxy-11′,12′-dimethyl-7′-((3-methyl-2-oxo-1-oxa-3,8-diazaspiro[4.5]dec-8-yl)methyl)-3,4-dihydro-2H,15′H-spiro[naphthalene-1,22′-[20]oxa[13]thia[1,14]diazatetracyclo [14.7.2.0~3,6~.0~19,24~]pentacosa[8,16,18,24]tetraen]-15′-one 13′,13′-dioxide]
[1]; [6]
  IC50: 149 nM
[2]; [7]
  IC50: 0.215 nM

## C[C@@H]1[C@@H](C)C/C=C/[C@]2(CN3CCN(C)C[C@@H]3CO2)[C@@H]2CC[C@H]2CN2C[C@@]3(CCCc4cc(Cl)ccc43)COc3ccc(cc32)C(=O)NS1(=O)=O (single isomer, unassigned) [Example 133]
[1]; read-out: OPM-2 10% FBS IC50 IP, OPM-2 cells, 10% FBS, 16 h incubation
  IC50: 136 nM
[2]; [7]
  IC50: 0.189 nM

## CO[C@@]1(COCCN2CCOCC2)/C=C/C[C@H](C)[C@@H](C)S(=O)(=O)NC(=O)c2ccc3c(c2)N(C[C@@H]2CC[C@H]21)C[C@@]1(CCCc2cc(Cl)ccc21)CO3 [Example 100590, (1S,3′R,6′R,7′S,8′E,11′S,12′R)-6-chloro-7′-methoxy-11′,12′-dimethyl-7′-((2-(4-morpholinyl)ethoxy)methyl)-3,4-dihydro-2H,15′H-spiro[naphthalene-1,22′-[20]oxa[13]thia[1,14]diazatetracyclo [14.7.2.0~3,6~.0~19,24~]pentacosa[8,16,18,24]tetraen]-15′-one 13′,13′-dioxide]
[1]; [5]
  IC50: 501 nM
[2]; [4]
  IC50: 0.086 nM

## CO[C@@]1(CC(=O)N2CCN3CCOC[C@H]3C2)/C=C/C[C@H](C)[C@@H](C)S(=O)(=O)NC(=O)c2ccc3c(c2)N(C[C@@H]2CC[C@H]21)C[C@@]1(CCCc2cc(Cl)ccc21)CO3 [Example 100411, (1S,3′R,6′R,7′S,8′E,11′S,12′R)-6-chloro-7′-(2-((9aR)-hexahydropyrazino[2,1-c][1,4]oxazin-8(1H)-yl)-2-oxoethyl)-7′-methoxy-11′,12′-dimethyl-3,4-dihydro-2H,15′H-spiro[naphthalene-1,22′-[20]oxa[13]thia[1,14]diazatetracyclo [14.7.2.0~3,6~.0~19,24~]pentacosa[8,16,18,24]tetraen]-15′-one 13′,13′-dioxide]
[1]; [5]
  IC50: 2100 nM
[2]; [4]
  IC50: 0.584 nM

## Cc1nccnc1C[C@@]1(O)/C=C/C[C@H](C)[C@@H](C)S(=O)(=O)NC(=O)c2ccc3c(c2)N(C[C@@H]2CC[C@H]21)C[C@@]1(CCCc2cc(Cl)ccc21)CO3 [Example 100526, (1S,3′R,6′R,7′R,8′E,11′S,12′R)-6-chloro-7′-hydroxy-11′,12′-dimethyl-7′-((3-methyl-2-pyrazinyl)methyl)-3,4-dihydro-2H,15′H-spiro[naphthalene-1,22′-[20]oxa[13]thia[1,14]diazatetracyclo [14.7.2.0~3,6~.0~19,24~]pentacosa[8,16,18,24]tetraen]-15′-one 13′,13′-dioxide]
[1]; [5]
  IC50: 826 nM
[2]; [4]
  IC50: 0.387 nM

## C[C@@H]1[C@@H](C)C/C=C/[C@](O)(C(C)(C)C#N)[C@@H]2CC[C@H]2CN2C[C@@]3(CCCc4cc(Cl)ccc43)COc3ccc(cc32)C(=O)NS1(=O)=O [Example 100060, 2-((1S,3′R,6′R,7′R,8′E,11′S,12′R)-6-chloro-7′-hydroxy-11′,12′-dimethyl-13′,13′-dioxido-15′-oxo-3,4-dihydro-2H-spiro[naphthalene-1,22′-[20]oxa[13]thia[1,14]diazatetracyclo [14.7.2.0~3,6~.0~19,24~]pentacosa[8,16,18,24]tetraen]-7′-yl)-2-methylpropanenitrile]
[1]; [3]
  IC50: 5980 nM
[2]; [4]
  IC50: 4.01 nM

## C[C@@H]1[C@@H](C)C/C=C/[C@@](O)(c2nc(CO)nn2C)[C@@H]2CC[C@H]2CN2C[C@@]3(CCCc4cc(Cl)ccc43)COc3ccc(cc32)C(=O)NS1(=O)=O [Example 100200, (1S,3′R,6′R,7′S,8′E,11′S,12′R)-6-chloro-7′-hydroxy-7′-(3-(hydroxymethyl)-1-methyl-1H-1,2,4-triazol-5-yl)-11′,12′-dimethyl-3,4-dihydro-2H,15′H-spiro[naphthalene-1,22′-[20]oxa[13]thia[1,14]diazatetracyclo [14.7.2.0~3,6~.0~19,24~]pentacosa[8,16,18,24]tetraen]-15′-one 13′,13′-dioxide]
[1]; [5]
  IC50: 1070 nM
[2]; [4]
  IC50: 0.213 nM

## CO[C@@]1(CC(=O)N2CCN(C)CC2)/C=C/C[C@H](C)[C@@H](C)S(=O)(=O)NC(=O)c2ccc3c(c2)N(C[C@@H]2CC[C@H]21)C[C@@]1(CCCc2cc(Cl)ccc21)CO3 [Example 100376, (1S,3′R,6′R,7′S,8′E,11′S,12′R)-6-chloro-7′-methoxy-11′,12′-dimethyl-7′-(2-(4-methyl-1-piperazinyl)-2-oxoethyl)-3,4-dihydro-2H,15′H-spiro[naphthalene-1,22′-[20]oxa[13]thia[1,14]diazatetracyclo [14.7.2.0~3,6~.0~19,24~]pentacosa[8,16,18,24]tetraen]-15′-one 13′,13′-dioxide]
[1]; [5]
  IC50: 362 nM
[2]; [4]
  IC50: 0.15 nM

## CO[C@@]1(C)/C=C/C[C@H](C)[C@@H](CCN2CCOCC2)S(=O)(=O)NC(=O)c2ccc3c(c2)N(C[C@@H]2CC[C@H]21)C[C@@]1(CCCc2cc(Cl)ccc21)CO3 (single isomer, unassigned) [Example 100595]
[1]; [3]
  IC50: 133 nM
[2]; [4]
  IC50: 0.157 nM
